The test system of experiment [1] is H3K9me2 in MDA-MB-231 cells. As to the kind of experiment: MDA-MB-231 H3K9me2 in-cell western assay. Type of experiment: cell-based. The note with it: Homo sapiens, read-out: EHMT2 ICW (IC50 μM). The method, boiled down:
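MDA-MB-231 cells (3,000/well) exposed to compound for two consecutive 48 h periods at 37 °C, then fixed and stained for H3K9me2, with DRAQ5 as DNA stain and infrared read at 700/800 nm. Percent inhibition was set between DMSO and UNC0638 control wells. IC50 came from triplicate dose–response fits with a four-parameter model, top 100%, bottom 0%.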

The target in a further experiment is T1, EHMT1 (Homo sapiens, UniProt Q9H9B1).
T1 sequence (Q9H9B1 1-1298): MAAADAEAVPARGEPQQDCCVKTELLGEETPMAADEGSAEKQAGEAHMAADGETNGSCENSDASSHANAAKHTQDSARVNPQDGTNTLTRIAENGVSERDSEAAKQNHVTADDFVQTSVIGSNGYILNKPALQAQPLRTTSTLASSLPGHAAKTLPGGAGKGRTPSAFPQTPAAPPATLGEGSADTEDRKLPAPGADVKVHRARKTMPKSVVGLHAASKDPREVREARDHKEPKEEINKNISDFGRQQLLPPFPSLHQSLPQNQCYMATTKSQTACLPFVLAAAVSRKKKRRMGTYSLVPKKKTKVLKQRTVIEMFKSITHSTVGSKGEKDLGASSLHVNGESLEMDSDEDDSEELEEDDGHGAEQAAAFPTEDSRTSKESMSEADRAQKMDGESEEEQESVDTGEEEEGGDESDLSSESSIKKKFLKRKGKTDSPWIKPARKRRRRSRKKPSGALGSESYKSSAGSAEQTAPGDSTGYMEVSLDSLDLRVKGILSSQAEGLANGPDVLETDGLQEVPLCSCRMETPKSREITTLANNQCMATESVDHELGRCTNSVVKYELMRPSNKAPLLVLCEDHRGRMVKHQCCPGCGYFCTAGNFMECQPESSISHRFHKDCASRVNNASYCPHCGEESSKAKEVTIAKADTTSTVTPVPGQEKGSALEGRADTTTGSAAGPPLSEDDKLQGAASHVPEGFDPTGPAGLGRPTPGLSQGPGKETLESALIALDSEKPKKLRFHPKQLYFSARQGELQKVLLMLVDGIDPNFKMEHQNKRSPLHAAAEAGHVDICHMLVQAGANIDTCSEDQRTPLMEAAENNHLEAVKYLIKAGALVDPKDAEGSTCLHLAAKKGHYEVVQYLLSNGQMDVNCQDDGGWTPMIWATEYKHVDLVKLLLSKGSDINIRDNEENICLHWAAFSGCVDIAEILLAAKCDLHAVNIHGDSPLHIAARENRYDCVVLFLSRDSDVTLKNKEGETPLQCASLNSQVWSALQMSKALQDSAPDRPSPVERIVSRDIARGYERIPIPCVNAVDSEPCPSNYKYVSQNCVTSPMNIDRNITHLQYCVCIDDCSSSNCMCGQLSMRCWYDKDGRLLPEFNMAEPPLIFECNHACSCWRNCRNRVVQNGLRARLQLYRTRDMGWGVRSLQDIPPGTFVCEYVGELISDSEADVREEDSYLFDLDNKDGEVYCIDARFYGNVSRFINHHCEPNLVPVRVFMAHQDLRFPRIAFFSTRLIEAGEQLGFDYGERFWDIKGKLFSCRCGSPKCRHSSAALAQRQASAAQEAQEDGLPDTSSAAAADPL
Nature of the experiment: EHMT1 PEP (EHMT1 peptide enzyme assay). The experiment is classed as biochemical. The note with it: peptide substrate enzyme assay.

In general, IC50 refers to the point on the concentration scale where inhibition reaches its midpoint. As for `CNc1cc(C)nc(Nc2ccc(Cl)c(C(=O)Nc3cnccn3)c2)n1` [Compound 251], the results for the IC50 (in experiment [1]; against EHMT1) were 1 to 10 µM and 0.1 to 1 µM, respectively.

Take `CNc1cc(C)nc(Nc2ccc(Cl)c(-c3cc4[nH]ccc4cn3)c2)n1` [Compound 255]: the IC50 in experiment [1] is 0.1 to 1 µM; at EHMT1, under 0.1 µM.

For the molecule `CNc1cc(C)nc(Nc2ccc(C)c(-c3cc4[nH]ccc4cn3)c2)n1` [Compound 256], the IC50 in experiment [1] was 0.1 to 1 µM; on EHMT1, under 0.1 µM.

Regarding `CNc1nc2cc(-c3cc4[nH]ccc4cn3)c(C)cc2n1C` [Compound 257], the IC50 in experiment [1] is 1 to 10 µM; against EHMT1, 0.1 to 1 µM.

Turning to `CNc1cc(C)nc(Nc2ccc(Cl)c(C(=O)Nc3ncccn3)c2)n1` [Compound 258], the IC50 in experiment [1] fell in the range of 1 to 10 µM; on EHMT1, 0.1 to 1 µM.

Turning to `CNc1cc(C)nc(Nc2ccc(Cl)c(C(=O)Nc3ccncn3)c2)n1` [Compound 259], the IC50 in experiment [1] was over 10 µM; on EHMT1, 1 to 10 µM.

With `CNc1cc(C)nc(Nc2ccc(Cl)c(-c3cc4c(cn3)CC(=O)N4)c2)n1` [Compound 260], the values for the IC50 (in experiment [1]; on EHMT1) were over 10 µM and 0.1 to 1 µM, respectively.

On to `CNCc1cnn(-c2cc(Nc3nc(C)cc(NC)n3)ccc2Cl)c1` [Compound 262, N2-(4-chloro-3-(4-((methylamino)methyl)-1H-pyrazol-1-yl)phenyl)-N4,6-dimethylpyrimidine-2,4-diamine], for which the IC50 (in experiment [1]; on EHMT1) was under 0.1 µM in each case.

For `CCc1ccc(Nc2nc(C)cc(NC)n2)cc1-c1cc2ccncc2[nH]1` [Compound 269], the values for the IC50 (in experiment [1]; against EHMT1) were 0.1 to 1 µM and under 0.1 µM, respectively.

In the case of `CNc1cc(C)nc(Nc2ccc(C)c(-c3[nH]c4cnccc4c3C#N)c2)n1` [Compound 271], the IC50 in experiment [1] is over 10 µM; against EHMT1 it was 1 to 10 µM.

Regarding `CNc1cc(C)nc(Nc2ccc(C)c(-c3cc4ccccc4[nH]3)c2)n1` [Compound 274], the IC50 in experiment [1] is over 10 µM; on EHMT1, 1 to 10 µM.

In the case of `CCNc1c[nH]c(=O)c(-c2cc(Nc3nc(C)cc(NC)n3)ccc2C)c1` [Compound 276], the IC50 (in experiment [1]; at EHMT1) was 1 to 10 µM each time.

As for `CNc1nc2cc(-c3cc4ccncc4[nH]3)c(C)cc2n1C` [Compound 278], the IC50 in experiment [1] is 0.1 to 1 µM; at EHMT1 it was under 0.1 µM.

On to `CNc1cc(C)nc(Nc2ccc(C)c(-c3nc4ccncc4[nH]3)c2)n1` [Compound 279], for which the IC50 in experiment [1] was 1 to 10 µM; on EHMT1, under 0.1 µM.

With `CNc1cc(C)nc(Nc2ccc(C)c(C(=O)Nc3cscn3)c2)n1` [Compound 280], the values for the IC50 (in experiment [1]; against EHMT1) were over 10 µM and 1 to 10 µM, respectively.

Regarding `CNc1cc(C)nc(Nc2ccc(C)c(-n3cc4cnccc4n3)c2)n1` [Compound 282], the IC50 (in experiment [1]; against EHMT1) was under 0.1 µM each time.

For `CNCc1cnn(-c2cc(Nc3nc(C)cc(NC)n3)ccc2OC)c1` [Compound 285], the IC50 (in experiment [1]; against EHMT1) was under 0.1 µM each time.

As for `CNCc1cnn(-c2cc(Nc3nc(C)cc(NC)n3)ccc2C)c1` [Compound 286, N4,6-dimethyl-N2-(4-methyl-3-(4-((methylamino)methyl)-1H-pyrazol-1-yl)phenyl)pyrimidine-2,4-diamine], the IC50 (in experiment [1]; at EHMT1) was under 0.1 µM each time.

Regarding `CNc1cc(C)nc(Nc2ccc(C)c(C(=O)Nc3cnccn3)c2)n1` [Compound 287], the IC50 in experiment [1] was 1 to 10 µM; against EHMT1, 0.1 to 1 µM.

Take `CNc1cc(C)nc(Nc2ccc(OC)c(-c3[nH]c4cnccc4c3C#N)c2)n1` [Compound 291]: the IC50 (in experiment [1]; on EHMT1) was 1 to 10 µM throughout.

For the molecule `CNc1cc(C)nc(Nc2ccc(OC)c(-c3cc4[nH]ccc4c(C#N)n3)c2)n1` [Compound 292], the results for the IC50 (in experiment [1]; on EHMT1) were 0.1 to 1 µM and under 0.1 µM, respectively.

As for `CNc1cc(C)nc(Nc2ccc(OC)c(-c3cc4[nH]ccc4c(CNC(C)=O)n3)c2)n1` [Compound 293], the IC50 is 1 to 10 µM in experiment [1] and under 0.1 µM against EHMT1.

Regarding `CNC1=Nc2cc(-c3cnc4cc[nH]c4c3)c(OC)cc2C12CCC2` [Compound 294], the results for the IC50 (in experiment [1]; against EHMT1) were 1 to 10 µM and under 0.1 µM, respectively.

In the case of `CNc1nc2cc(-c3cnc4cc[nH]c4c3)c(OC)cc2n1C` [Compound 295], the 50% inhibitory concentration (IC50) in experiment [1] is 1 to 10 µM; at EHMT1, 0.1 to 1 µM.

Consider `CNc1cc(C)nc(Nc2ccc(OC)c(-c3cc4[nH]ccc4c(CN)n3)c2)n1` [Compound 296], for which the IC50 in experiment [1] is 1 to 10 µM; against EHMT1, under 0.1 µM.

In the case of `CNc1cc(C)nc(Nc2ccc(C)c(C(=O)Nc3cn(C)nn3)c2)n1` [Compound 299], the IC50 in experiment [1] was over 10 µM; against EHMT1 it was 1 to 10 µM.

As for `CNC1=Nc2cc(-c3cc4[nH]ccc4nc3C)c(OC)cc2C12CCC2` [Compound 300], the IC50 was 0.1 to 1 µM in experiment [1] and under 0.1 µM on EHMT1.

In the case of `CNc1cc(C)nc(Nc2ccc(C)c(C(=O)Nc3cn(C)cn3)c2)n1` [Compound 302], the IC50 (in experiment [1]; at EHMT1) was over 10 µM in each case.

As to `CNc1nc2cc(-c3[nH]c4cnccc4c3C)c(OC)cc2n1C` [Compound 304], the IC50 in experiment [1] is over 10 µM; on EHMT1, 0.1 to 1 µM.

For `COc1cc(NC2CCNC2)ccc1-c1[nH]c2cnccc2c1C` (stereo not drawn) [Compound 305], the values for the IC50 (in experiment [1]; at EHMT1) were over 10 µM and 1 to 10 µM, respectively.

In the case of `CNc1cc(C)nc(Nc2ccc(OC)c(-c3nccc(NC)n3)c2)n1` [Compound 306], the figures for the IC50 (in experiment [1]; against EHMT1) were over 10 µM and 1 to 10 µM, respectively.

On to `CNCc1cnn(-c2c(F)ccc(Nc3nc(C)cc(NC)n3)c2F)c1` [Compound 307], for which the IC50 is 0.1 to 1 µM in experiment [1] and under 0.1 µM on EHMT1.

With `CNC1=Nc2cc(-c3cc4[nH]ccc4c(C(N)=O)n3)c(OC)cc2C12CCC2` [Compound 308], the IC50 is over 10 µM in experiment [1] and 0.1 to 1 µM against EHMT1.

Turning to `COc1cc2c(cc1-c1cc3[nH]ccc3cn1)N=C(NCC(N)=O)C21CCC1` [Compound 309], the IC50 in experiment [1] was over 10 µM; at EHMT1 it was 0.1 to 1 µM.

Turning to `COc1cc(NC2CCNCC2)ccc1-c1[nH]c2cnccc2c1C` [Compound 310], the IC50 in experiment [1] was over 10 µM; against EHMT1, 1 to 10 µM.

Take `CNc1cc(C)nc(Nc2cnc(C)c(-c3cc4ccncc4[nH]3)c2)n1` [Compound 311]: the IC50 (in experiment [1]; against EHMT1) was over 10 µM throughout.

Turning to `CNCc1ccnc(-c2cc(Nc3nc(C)cc(NC)n3)ccc2OC)c1` [Compound 313], the IC50 in experiment [1] lay within 1 to 10 µM; against EHMT1 it was 0.1 to 1 µM.

On to `CNC1=Nc2cc(-n3cc(CN4CCC4)cn3)c(OC)cc2C12CCC2` [Compound 314], for which the IC50 in experiment [1] is 0.1 to 1 µM; at EHMT1, under 0.1 µM.

Take `CNc1cc(C)nc(Nc2ccc(F)c(-n3cc(CN4CCC4)cn3)c2F)n1` [Compound 315]: the IC50 in experiment [1] was in the range of 1 to 10 µM; against EHMT1 it was 0.1 to 1 µM.

Take `CNc1cc(C)nc(Nc2ccc(OC)c(-c3[nH]c4cnccc4c3CNC(C)=O)c2)n1` [Compound 316]: the results for the IC50 (in experiment [1]; against EHMT1) were 0.1 to 1 µM and under 0.1 µM, respectively.

As for `CNCc1cnn(-c2c(OC)ccc(Nc3nc(C)cc(NC)n3)c2F)c1` [Compound 317, N2-(2-fluoro-4-methoxy-3-(4-((methylamino)methyl)-1H-pyrazol-1-yl)phenyl)-N4,6-dimethylpyrimidine-2,4-diamine], the IC50 (in experiment [1]; against EHMT1) was under 0.1 µM each time.

`CNCc1cnn(-c2c(F)ccc(Nc3nc(C)cc(NC)n3)c2OC)c1` [Compound 318]: the IC50 (in experiment [1]; against EHMT1) was 0.1 to 1 µM throughout.

Regarding `CNCc1cnn(-c2cc(Nc3nc(C)cc(NC)n3)ccc2Br)c1` [Compound 319], the IC50 (in experiment [1]; on EHMT1) was under 0.1 µM throughout.

Consider `CCc1ccc(Nc2nc(C)cc(NC)n2)cc1-n1cc(CNC)cn1` [Compound 320], for which the concentration for half-maximal inhibition (IC50) is 0.1 to 1 µM in experiment [1] and under 0.1 µM against EHMT1.

Consider `CNc1cc(C)nc(Nc2ccc(OC)c(-n3cc(C4CCCN4)cn3)c2)n1` (stereo not drawn) [Compound 321], for which the IC50 (in experiment [1]; against EHMT1) was under 0.1 µM in each case.

The values are drawn from patent publication US20220235065A1 (Epizyme, Inc., priority 2016, published 2022).
